Reference: ChEMBL document CHEMBL5346933, “Design and synthesis of novel arylurea derivatives of aryloxy(1-phenylpropyl) alicyclic diamines with antimicrobial activity against multidrug-resistant Gram-positive bacteria” (Eur J Med Chem, 2023)
Converted amounts (≈) assume the structure as drawn. The source made the active and inactive calls. No cut-off for these calls is given here.

system: Escherichia coli; assay: Antibacterial activity against Escherichia coli ATCC 25922 assessed as inhibition of bacterial growth incubated for 18 hrs by broth microdilution method; assay type: functional

Row | SMILES | Activity
1 | O=C(Nc1cccc(Cl)c1)NC1CCN(CCC(Oc2ccccc2C(F)(F)F)c2ccccc2)CC1 (racemic) | inactive
2 | O=C(Nc1cccc(Cl)c1)NC1CCN(CCC(Oc2ccccc2)c2ccccc2)CC1 (racemic) | inactive
3 | O=C(Nc1ccc(Cl)cc1)NC1CCN(CCC(Oc2ccc(C(F)(F)F)cc2)c2ccccc2)CC1 (racemic) | inactive
4 | COc1cccc(OC(CCN2CCC(NC(=O)Nc3cccc(Cl)c3)CC2)c2ccccc2)c1 (racemic) | inactive
5 | COc1ccc(OC(CCN2CCC(NC(=O)Nc3cccc(Cl)c3)CC2)c2ccccc2)cc1 (racemic) | inactive

system: Staphylococcus epidermidis; assay: Antibacterial activity against linezolid-resistant Staphylococcus epidermidis NIL 4399/19 assessed as inhibition of bacterial growth incubated for 18 hrs by broth microdilution method; assay type: functional

Row | SMILES | MIC
6 | O=C(Nc1cccc(Cl)c1)NC1CCN(CCC(Oc2ccccc2C(F)(F)F)c2ccccc2)CC1 (racemic) | 3.12 µg/mL (≈ 5.87 µM)
7 | O=C(Nc1cccc(Cl)c1)NC1CCN(CCC(Oc2ccccc2)c2ccccc2)CC1 (racemic) | 6.25 µg/mL (≈ 13.5 µM)
8 | O=C(Nc1ccc(Cl)cc1)NC1CCN(CCC(Oc2ccc(C(F)(F)F)cc2)c2ccccc2)CC1 (racemic) | > 12.5 µg/mL
9 | COc1cccc(OC(CCN2CCC(NC(=O)Nc3cccc(Cl)c3)CC2)c2ccccc2)c1 (racemic) | 6.25 µg/mL (≈ 12.7 µM)
10 | COc1ccc(OC(CCN2CCC(NC(=O)Nc3cccc(Cl)c3)CC2)c2ccccc2)cc1 (racemic) | 6.25 µg/mL (≈ 12.7 µM)

system: Staphylococcus epidermidis; assay: Antibacterial activity against methicillin-susceptible Staphylococcus epidermidis ATCC 12228 assessed as inhibition of bacterial growth incubated for 18 hrs by broth microdilution method; assay type: functional

Row | SMILES | MIC
11 | O=C(Nc1cccc(Cl)c1)NC1CCN(CCC(Oc2ccccc2C(F)(F)F)c2ccccc2)CC1 (racemic) | 12.5 µg/mL (≈ 23.5 µM)
12 | O=C(Nc1cccc(Cl)c1)NC1CCN(CCC(Oc2ccccc2)c2ccccc2)CC1 (racemic) | 6.25 µg/mL (≈ 13.5 µM)
13 | O=C(Nc1ccc(Cl)cc1)NC1CCN(CCC(Oc2ccc(C(F)(F)F)cc2)c2ccccc2)CC1 (racemic) | > 12.5 µg/mL
14 | COc1cccc(OC(CCN2CCC(NC(=O)Nc3cccc(Cl)c3)CC2)c2ccccc2)c1 (racemic) | 6.25 µg/mL (≈ 12.7 µM)
15 | COc1ccc(OC(CCN2CCC(NC(=O)Nc3cccc(Cl)c3)CC2)c2ccccc2)cc1 (racemic) | 12.5 µg/mL (≈ 25.3 µM)

system: Staphylococcus aureus; assay: Antibacterial activity against vancomycin-intermediate Staphylococcus aureus ATCC 700699 assessed as inhibition of bacterial growth incubated for 18 hrs by broth microdilution method; assay type: functional

Row | SMILES | MIC
16 | O=C(Nc1cccc(Cl)c1)NC1CCN(CCC(Oc2ccccc2C(F)(F)F)c2ccccc2)CC1 (racemic) | 3.12 µg/mL (≈ 5.87 µM)
17 | O=C(Nc1cccc(Cl)c1)NC1CCN(CCC(Oc2ccccc2)c2ccccc2)CC1 (racemic) | 12.5 µg/mL (≈ 26.9 µM)
18 | O=C(Nc1ccc(Cl)cc1)NC1CCN(CCC(Oc2ccc(C(F)(F)F)cc2)c2ccccc2)CC1 (racemic) | > 12.5 µg/mL
19 | COc1cccc(OC(CCN2CCC(NC(=O)Nc3cccc(Cl)c3)CC2)c2ccccc2)c1 (racemic) | 12.5 µg/mL (≈ 25.3 µM)
20 | COc1ccc(OC(CCN2CCC(NC(=O)Nc3cccc(Cl)c3)CC2)c2ccccc2)cc1 (racemic) | 6.25 µg/mL (≈ 12.7 µM)

system: Staphylococcus epidermidis; assay: Antibacterial activity against biofilm producer Staphylococcus epidermidis ATCC 35984 assessed as inhibition of bacterial growth incubated for 18 hrs by broth microdilution method; assay type: functional

Row | SMILES | MIC
21 | O=C(Nc1cccc(Cl)c1)NC1CCN(CCC(Oc2ccccc2C(F)(F)F)c2ccccc2)CC1 (racemic) | > 12.5 µg/mL
22 | O=C(Nc1cccc(Cl)c1)NC1CCN(CCC(Oc2ccccc2)c2ccccc2)CC1 (racemic) | 3.12 µg/mL (≈ 6.73 µM)
23 | O=C(Nc1ccc(Cl)cc1)NC1CCN(CCC(Oc2ccc(C(F)(F)F)cc2)c2ccccc2)CC1 (racemic) | 3.12 µg/mL (≈ 5.87 µM)
24 | COc1cccc(OC(CCN2CCC(NC(=O)Nc3cccc(Cl)c3)CC2)c2ccccc2)c1 (racemic) | 6.25 µg/mL (≈ 12.7 µM)
25 | COc1ccc(OC(CCN2CCC(NC(=O)Nc3cccc(Cl)c3)CC2)c2ccccc2)cc1 (racemic) | 6.25 µg/mL (≈ 12.7 µM)

system: Staphylococcus aureus; assay: Antibacterial activity against methicillin-resistant Staphylococcus aureus clinical strain 19449 assessed as inhibition of bacterial growth incubated for 18 hrs by broth microdilution method; assay type: functional

Row | SMILES | MIC
26 | O=C(Nc1cccc(Cl)c1)NC1CCN(CCC(Oc2ccccc2C(F)(F)F)c2ccccc2)CC1 (racemic) | 3.12 µg/mL (≈ 5.87 µM)
27 | O=C(Nc1cccc(Cl)c1)NC1CCN(CCC(Oc2ccccc2)c2ccccc2)CC1 (racemic) | 12.5 µg/mL (≈ 26.9 µM)
28 | O=C(Nc1ccc(Cl)cc1)NC1CCN(CCC(Oc2ccc(C(F)(F)F)cc2)c2ccccc2)CC1 (racemic) | 6.25 µg/mL (≈ 11.7 µM)
29 | COc1cccc(OC(CCN2CCC(NC(=O)Nc3cccc(Cl)c3)CC2)c2ccccc2)c1 (racemic) | 12.5 µg/mL (≈ 25.3 µM)
30 | COc1ccc(OC(CCN2CCC(NC(=O)Nc3cccc(Cl)c3)CC2)c2ccccc2)cc1 (racemic) | 12.5 µg/mL (≈ 25.3 µM)

system: Klebsiella pneumoniae; assay: Antibacterial activity against Klebsiella pneumoniae ATCC 700603 assessed as inhibition of bacterial growth incubated for 18 hrs by broth microdilution method; assay type: functional

Row | SMILES | Activity
31 | O=C(Nc1cccc(Cl)c1)NC1CCN(CCC(Oc2ccccc2C(F)(F)F)c2ccccc2)CC1 (racemic) | inactive
32 | O=C(Nc1cccc(Cl)c1)NC1CCN(CCC(Oc2ccccc2)c2ccccc2)CC1 (racemic) | inactive
33 | O=C(Nc1ccc(Cl)cc1)NC1CCN(CCC(Oc2ccc(C(F)(F)F)cc2)c2ccccc2)CC1 (racemic) | inactive
34 | COc1cccc(OC(CCN2CCC(NC(=O)Nc3cccc(Cl)c3)CC2)c2ccccc2)c1 (racemic) | inactive
35 | COc1ccc(OC(CCN2CCC(NC(=O)Nc3cccc(Cl)c3)CC2)c2ccccc2)cc1 (racemic) | inactive

system: Staphylococcus aureus; assay: Antibacterial activity against methicillin-susceptible Staphylococcus aureus ATCC 25923 assessed as inhibition of bacterial growth incubated for 18 hrs by broth microdilution method; assay type: functional

Row | SMILES | MIC
36 | O=C(Nc1cccc(Cl)c1)NC1CCN(CCC(Oc2ccccc2C(F)(F)F)c2ccccc2)CC1 (racemic) | 3.12 µg/mL (≈ 5.87 µM)
37 | O=C(Nc1cccc(Cl)c1)NC1CCN(CCC(Oc2ccccc2)c2ccccc2)CC1 (racemic) | 6.25 µg/mL (≈ 13.5 µM)
38 | O=C(Nc1ccc(Cl)cc1)NC1CCN(CCC(Oc2ccc(C(F)(F)F)cc2)c2ccccc2)CC1 (racemic) | > 12.5 µg/mL
39 | COc1cccc(OC(CCN2CCC(NC(=O)Nc3cccc(Cl)c3)CC2)c2ccccc2)c1 (racemic) | 12.5 µg/mL (≈ 25.3 µM)
40 | COc1ccc(OC(CCN2CCC(NC(=O)Nc3cccc(Cl)c3)CC2)c2ccccc2)cc1 (racemic) | 12.5 µg/mL (≈ 25.3 µM)

system: Streptococcus pneumoniae; assay: Antibacterial activity against Streptococcus pneumoniae ATCC 49619 assessed as inhibition of bacterial growth incubated for 18 hrs by broth microdilution method; assay type: functional

Row | SMILES | MIC
41 | O=C(Nc1cccc(Cl)c1)NC1CCN(CCC(Oc2ccccc2C(F)(F)F)c2ccccc2)CC1 (racemic) | 12.5 µg/mL (≈ 23.5 µM)
42 | O=C(Nc1cccc(Cl)c1)NC1CCN(CCC(Oc2ccccc2)c2ccccc2)CC1 (racemic) | 12.5 µg/mL (≈ 26.9 µM)
43 | O=C(Nc1ccc(Cl)cc1)NC1CCN(CCC(Oc2ccc(C(F)(F)F)cc2)c2ccccc2)CC1 (racemic) | 6.25 µg/mL (≈ 11.7 µM)
44 | COc1cccc(OC(CCN2CCC(NC(=O)Nc3cccc(Cl)c3)CC2)c2ccccc2)c1 (racemic) | 12.5 µg/mL (≈ 25.3 µM)
45 | COc1ccc(OC(CCN2CCC(NC(=O)Nc3cccc(Cl)c3)CC2)c2ccccc2)cc1 (racemic) | > 12.5 µg/mL

system: Pseudomonas aeruginosa; assay: Antibacterial activity against Pseudomonas aeruginosa ATCC 27853 assessed as inhibition of bacterial growth incubated for 18 hrs by broth microdilution method; assay type: functional

Row | SMILES | Activity
46 | O=C(Nc1cccc(Cl)c1)NC1CCN(CCC(Oc2ccccc2C(F)(F)F)c2ccccc2)CC1 (racemic) | inactive
47 | O=C(Nc1cccc(Cl)c1)NC1CCN(CCC(Oc2ccccc2)c2ccccc2)CC1 (racemic) | inactive
48 | O=C(Nc1ccc(Cl)cc1)NC1CCN(CCC(Oc2ccc(C(F)(F)F)cc2)c2ccccc2)CC1 (racemic) | inactive
49 | COc1cccc(OC(CCN2CCC(NC(=O)Nc3cccc(Cl)c3)CC2)c2ccccc2)c1 (racemic) | inactive
50 | COc1ccc(OC(CCN2CCC(NC(=O)Nc3cccc(Cl)c3)CC2)c2ccccc2)cc1 (racemic) | inactive

system: Staphylococcus aureus; assay: Antibacterial activity against biofilm producer Staphylococcus aureus RN450 assessed as inhibition of bacterial growth incubated for 18 hrs by broth microdilution method; assay type: functional

Row | SMILES | MIC
51 | O=C(Nc1cccc(Cl)c1)NC1CCN(CCC(Oc2ccccc2C(F)(F)F)c2ccccc2)CC1 (racemic) | 3.12 µg/mL (≈ 5.87 µM)
52 | O=C(Nc1cccc(Cl)c1)NC1CCN(CCC(Oc2ccccc2)c2ccccc2)CC1 (racemic) | 1.56 µg/mL (≈ 3.36 µM)
53 | O=C(Nc1ccc(Cl)cc1)NC1CCN(CCC(Oc2ccc(C(F)(F)F)cc2)c2ccccc2)CC1 (racemic) | 1.56 µg/mL (≈ 2.93 µM)
54 | COc1cccc(OC(CCN2CCC(NC(=O)Nc3cccc(Cl)c3)CC2)c2ccccc2)c1 (racemic) | 3.12 µg/mL (≈ 6.33 µM)
55 | COc1ccc(OC(CCN2CCC(NC(=O)Nc3cccc(Cl)c3)CC2)c2ccccc2)cc1 (racemic) | 6.25 µg/mL (≈ 12.7 µM)
